Experiments:
Conditions in all cases: Hit No
[1] = target: T1, Endonuclease III-like protein 1 (Homo sapiens) (UniProt P78549);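 also: enzyme assay tracking NTHL1 cutting and release of a quenched double-stranded DNA oligo substrate, read as fluorescence at 594 nm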
T1 sequence (whole entry): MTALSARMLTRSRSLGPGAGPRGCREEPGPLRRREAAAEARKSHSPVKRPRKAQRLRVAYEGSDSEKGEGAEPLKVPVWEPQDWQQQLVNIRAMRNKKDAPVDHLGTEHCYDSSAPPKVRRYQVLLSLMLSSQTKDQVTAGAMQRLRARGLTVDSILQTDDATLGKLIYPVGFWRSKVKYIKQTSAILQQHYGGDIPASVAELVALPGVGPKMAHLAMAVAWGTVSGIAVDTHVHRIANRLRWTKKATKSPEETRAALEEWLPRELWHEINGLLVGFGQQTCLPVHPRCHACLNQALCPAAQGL
Description: Inhibition of NTHL1 by quantifying inhibition of NTHL1-mediated cleavage and dissociation of quenched duplex DNA oligonucleotides, measured as fluorescence at 594 nm.

[2] = target: Methyl-CpG-binding domain protein 4 (Homo sapiens) (UniProt O95243);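 also: MBD4 activity read as fluorescence at 594 nm from cleavage and release of a quenched duplex DNA oligonucleotide, with APE1 coupled to incise the strand and raise turnover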
Description: Inhibition of MBD4 by quantifying inhibition of MBD4-mediated cleavage and dissociation of quenched duplex DNA oligonucleotides, measured as fluorescence at 594 nm. To generate a functional strand incision and increase turn-over this assay is coupled to APE1.

[3] = target: N-glycosylase/DNA lyase (Homo sapiens) (UniProt O15527);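 also: OGG1 cleavage of a quenched duplex DNA oligonucleotide, coupled to APE1 for strand incision, read as fluorescence at 594 nm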
Description: Inhibition of OGG1 by quantifying inhibition of OGG1-mediated cleavage and dissociation of quenched duplex DNA oligonucleotides, measured as fluorescence at 594 nm. To generate a functional strand incision and increase turn-over this assay is coupled to APE1.

[4] = target: Uracil-DNA glycosylase (Homo sapiens) (UniProt P13051);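 also: UNG excision on a quenched double-stranded DNA oligo probe, with APE1 added for strand incision and turnover, read as fluorescence at 594 nm as strands separate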
Description: Inhibition of UNG by quantifying inhibition of UNG-mediated cleavage and dissociation of quenched duplex DNA oligonucleotides, measured as fluorescence at 594 nm. To generate a functional strand incision and increase turn-over this assay is coupled to APE1.

[5] = target: Endonuclease 8-like 1 (Homo sapiens) (UniProt Q96FI4);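 also: fluorescence at 594 nm from quenched duplex DNA oligonucleotides released by NEIL1 cleavage and strand separation, reported as reduction of this enzyme activity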
Description: Inhibition of NEIL1 by quantifying inhibition of NEIL1-mediated cleavage and dissociation of quenched duplex DNA oligonucleotides, measured as fluorescence at 594 nm.

[6] = target: G/T mismatch-specific thymine DNA glycosylase (Homo sapiens) (UniProt Q13569);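 also: human TDG cleavage of quenched duplex DNA oligonucleotides coupled to APE1, strand release read as fluorescence at 594 nm, inhibition of TDG activity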
Description: Inhibition of TDG by quantifying inhibition of TDG-mediated cleavage and dissociation of quenched duplex DNA oligonucleotides, measured as fluorescence at 594 nm. To generate a functional strand incision and increase turn-over this assay is coupled to APE1.

[7] = target: T2, Single-strand selective monofunctional uracil DNA glycosylase (Homo sapiens) (UniProt Q53HV7);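 also: enzymatic SMUG1 assay coupled with APE1, reading fluorescence at 594 nm released when a quenched double-stranded DNA oligonucleotide substrate is cleaved and separated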
T2 sequence (whole entry): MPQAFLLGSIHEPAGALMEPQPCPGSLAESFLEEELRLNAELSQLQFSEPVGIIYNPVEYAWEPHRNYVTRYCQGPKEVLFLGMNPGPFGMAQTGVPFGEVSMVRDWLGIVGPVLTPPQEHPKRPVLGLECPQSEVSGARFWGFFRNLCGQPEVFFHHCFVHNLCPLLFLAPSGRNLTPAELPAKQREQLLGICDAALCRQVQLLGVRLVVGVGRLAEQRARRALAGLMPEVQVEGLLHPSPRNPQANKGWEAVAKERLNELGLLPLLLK
Description: Inhibition of SMUG1 by quantifying inhibition of SMUG1-mediated cleavage and dissociation of quenched duplex DNA oligonucleotides, measured as fluorescence at 594 nm. To generate a functional strand incision and increase turn-over this assay is coupled to APE1.

[8] = target: T3, Endonuclease 8-like 2 (Homo sapiens) (UniProt Q969S2);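 also: fluorescence at 594 nm reports NEIL2 cutting and release of a quenched double-stranded DNA oligo substrate, reduced signal read as inhibition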
T3 sequence (whole entry): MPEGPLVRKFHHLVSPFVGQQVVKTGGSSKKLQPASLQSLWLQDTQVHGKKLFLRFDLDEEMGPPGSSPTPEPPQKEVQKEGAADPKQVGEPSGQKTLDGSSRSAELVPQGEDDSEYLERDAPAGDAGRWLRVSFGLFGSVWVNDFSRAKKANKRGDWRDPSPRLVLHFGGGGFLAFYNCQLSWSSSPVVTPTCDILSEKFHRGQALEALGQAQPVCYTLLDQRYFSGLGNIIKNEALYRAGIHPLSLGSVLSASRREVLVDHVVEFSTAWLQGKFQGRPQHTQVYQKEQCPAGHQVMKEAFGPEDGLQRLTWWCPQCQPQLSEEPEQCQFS
Description: Inhibition of NEIL2 by quantifying inhibition of NEIL2-mediated cleavage and dissociation of quenched duplex DNA oligonucleotides, measured as fluorescence at 594 nm.

Sequence of G/T mismatch-specific thymine DNA glycosylase (Homo sapiens) (Q13569 whole entry): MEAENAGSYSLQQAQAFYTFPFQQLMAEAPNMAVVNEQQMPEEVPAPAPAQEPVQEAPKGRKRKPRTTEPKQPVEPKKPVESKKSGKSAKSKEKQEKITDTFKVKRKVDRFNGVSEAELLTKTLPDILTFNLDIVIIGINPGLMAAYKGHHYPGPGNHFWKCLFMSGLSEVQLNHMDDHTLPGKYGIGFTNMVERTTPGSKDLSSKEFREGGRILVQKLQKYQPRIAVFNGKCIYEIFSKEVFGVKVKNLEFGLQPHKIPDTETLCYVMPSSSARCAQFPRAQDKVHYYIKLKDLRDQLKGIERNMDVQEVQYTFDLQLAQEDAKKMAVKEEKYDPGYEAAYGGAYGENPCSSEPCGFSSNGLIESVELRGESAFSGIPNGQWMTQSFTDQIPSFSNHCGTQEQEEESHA
Sequence of Methyl-CpG-binding domain protein 4 (Homo sapiens) (O95243 whole entry, the tested form may be a part): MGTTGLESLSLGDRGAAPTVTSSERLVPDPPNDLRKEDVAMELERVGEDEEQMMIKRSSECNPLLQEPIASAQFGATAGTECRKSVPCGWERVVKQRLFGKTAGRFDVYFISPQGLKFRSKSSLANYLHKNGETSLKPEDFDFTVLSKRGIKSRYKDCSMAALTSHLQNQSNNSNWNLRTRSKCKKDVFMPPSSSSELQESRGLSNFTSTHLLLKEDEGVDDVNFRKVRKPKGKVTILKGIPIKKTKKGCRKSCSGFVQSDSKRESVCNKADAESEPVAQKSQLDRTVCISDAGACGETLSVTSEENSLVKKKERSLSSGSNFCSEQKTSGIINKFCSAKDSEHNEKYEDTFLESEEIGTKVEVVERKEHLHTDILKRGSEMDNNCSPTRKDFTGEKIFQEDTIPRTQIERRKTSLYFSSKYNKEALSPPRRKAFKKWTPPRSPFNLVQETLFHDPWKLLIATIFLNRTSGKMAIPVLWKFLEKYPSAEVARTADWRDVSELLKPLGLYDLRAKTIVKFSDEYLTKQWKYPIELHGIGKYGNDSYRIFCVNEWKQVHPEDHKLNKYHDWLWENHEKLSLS
Sequence of N-glycosylase/DNA lyase (Homo sapiens) (O15527 whole entry): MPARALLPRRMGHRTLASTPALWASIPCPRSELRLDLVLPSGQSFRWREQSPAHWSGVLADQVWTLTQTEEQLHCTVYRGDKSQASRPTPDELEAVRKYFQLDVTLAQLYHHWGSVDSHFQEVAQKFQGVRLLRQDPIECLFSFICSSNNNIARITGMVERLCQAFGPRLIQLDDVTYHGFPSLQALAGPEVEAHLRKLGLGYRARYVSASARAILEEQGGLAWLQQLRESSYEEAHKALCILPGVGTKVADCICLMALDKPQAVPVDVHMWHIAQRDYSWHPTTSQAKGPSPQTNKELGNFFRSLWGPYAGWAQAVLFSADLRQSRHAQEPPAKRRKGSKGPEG
Sequence of Uracil-DNA glycosylase (Homo sapiens) (P13051 whole entry): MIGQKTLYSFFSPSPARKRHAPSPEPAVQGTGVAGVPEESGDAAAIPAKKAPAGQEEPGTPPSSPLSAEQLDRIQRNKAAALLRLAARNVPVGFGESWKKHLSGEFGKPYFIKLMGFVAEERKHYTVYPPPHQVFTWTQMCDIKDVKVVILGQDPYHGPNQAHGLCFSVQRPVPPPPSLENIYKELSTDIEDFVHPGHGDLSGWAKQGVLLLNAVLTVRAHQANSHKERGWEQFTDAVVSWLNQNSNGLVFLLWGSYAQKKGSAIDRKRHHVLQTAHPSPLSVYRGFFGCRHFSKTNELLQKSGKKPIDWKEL
Sequence of Endonuclease 8-like 1 (Homo sapiens) (Q96FI4 whole entry): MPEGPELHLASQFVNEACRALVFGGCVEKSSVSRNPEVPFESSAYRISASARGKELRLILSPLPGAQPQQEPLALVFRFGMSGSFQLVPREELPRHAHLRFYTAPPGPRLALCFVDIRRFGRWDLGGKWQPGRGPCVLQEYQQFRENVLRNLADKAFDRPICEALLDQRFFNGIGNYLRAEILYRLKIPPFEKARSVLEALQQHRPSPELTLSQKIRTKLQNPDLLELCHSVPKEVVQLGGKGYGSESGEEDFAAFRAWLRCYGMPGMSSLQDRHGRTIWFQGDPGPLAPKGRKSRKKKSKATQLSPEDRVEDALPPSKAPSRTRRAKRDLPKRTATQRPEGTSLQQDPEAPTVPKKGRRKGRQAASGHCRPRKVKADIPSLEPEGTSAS

SMILES	inhibition ([1]; Compound Concentration 10.0 uM) [%]	inhibition ([2]; Compound Concentration 10.0 uM) [%]	inhibition ([3]; Compound Concentration 10.0 uM) [%]	inhibition ([4]; Compound Concentration 10.0 uM) [%]	inhibition ([5]; Compound Concentration 10.0 uM) [%]	inhibition ([6]; Compound Concentration 10.0 uM) [%]	inhibition ([7]; Compound Concentration 10.0 uM) [%]	inhibition ([8]; Compound Concentration 10.0 uM) [%]	inhibition ([1]; Compound Concentration 1.0 uM) [%]	inhibition ([2]; Compound Concentration 1.0 uM) [%]	inhibition ([3]; Compound Concentration 1.0 uM) [%]	inhibition ([4]; Compound Concentration 1.0 uM) [%]	inhibition ([5]; Compound Concentration 1.0 uM) [%]	inhibition ([6]; Compound Concentration 1.0 uM) [%]	inhibition ([7]; Compound Concentration 1.0 uM) [%]	inhibition ([8]; Compound Concentration 1.0 uM) [%]
CCOC(=O)c1ccc(C#Cc2ccc3c(c2)C(C)(C)CCS3)nc1	3.31	50.8	22.7	-5.12	1.22	98.1	8.77	2.06	–	–	–	–	–	–	–	–
C=C1/C(=C\C=C2/CCC[C@]3(C)[C@@H]([C@H](C)/C=C/C=C/C(O)(CC)CC)CC[C@@H]23)C[C@@H](O)C[C@@H]1O	-4.57	53.8	-1.05	0.169	0.77	28.5	-1.6	15.3	–	–	–	–	–	–	–	–
Cc1cccc(CN2CCN(C(c3ccccc3)c3ccc(Cl)cc3)CC2)c1 (centres undefined)	4.63	55.1	3.33	5.91	5.62	31.2	10.2	8.7	–	–	–	–	–	–	–	–
CCOC(=O)N1CCC(NS(=O)(=O)c2ccc(NC(=O)c3ccccc3C)c3ccccc23)CC1	-6.86	-4.31	6.16	-2.92	16.8	4.53	-0.636	3.73	–	–	–	–	–	–	–	–
CN1CCC[C@H]1c1cccnc1	8	-6.38	-8.49	-2.67	4.6	-9.56	-4.08	-0.35	–	–	–	–	–	–	–	–
FC(F)(F)c1ccc2c(c1)nc(-c1cccnc1)n2C1CC1	-7.86	61.4	-3.61	-0.0445	-3.77	39.3	3.68	-9.67	–	–	–	–	–	–	–	–
CNC(=O)COc1cc2cc(Nc3nc(N4C[C@H](C)C[C@H](C)C4)ncc3Cl)ccc2n(C)c1=O	-7.86	45.8	1.85	2.34	-7.56	53.4	10.3	4.1	–	–	–	–	–	–	–	–
COc1ccc(-c2ccc3cc(C(=O)O)ccc3c2)cc1C12CC3CC(CC(C3)C1)C2	6.6	48.6	34.6	-6.23	-5.14	39.5	7.63	-6.1	–	–	–	–	–	–	–	–
O=S(=O)(NC1CCC(c2cc(F)ccc2F)(S(=O)(=O)c2ccc(Cl)cc2)CC1)C(F)(F)F (centres undefined)	–	–	–	–	–	–	–	–	-3.92	61.8	19.6	0.604	-7.56	36.8	19.5	-8.91
NS(=O)(=O)c1cc(NC(=O)C2(c3ccccc3Cl)CC2)ccc1Oc1cccc(Cl)c1	-7.86	26.3	21.8	-3.29	-2.56	35.3	17.9	3.34	–	–	–	–	–	–	–	–
COc1ccc2c(O[C@@H]3C[C@H]4C(=O)N[C@]5(C(=O)O)CC5/C=C\CCCCC[C@H](NC(=O)OC5CCCC5)C(=O)N4C3)cc(-c3csc(NC(=O)C(C)C)n3)nc2c1C (some centres undefined)	6.6	33.3	55.8	5.79	-5.14	38.5	-6.44	1.3	–	–	–	–	–	–	–	–
CC(=O)Nc1ccc(-c2cc(-c3ccccc3)nc3cc(C(=O)NCCCn4ccnc4)nn23)cc1	3.31	52.7	-1.79	5.92	-3.92	38.6	10.4	-6.36	–	–	–	–	–	–	–	–
CS(=O)(=O)c1cc(C2(NC(=O)c3cncc4c3cnn4-c3ccc(F)cc3)CC2)ccn1	–	–	–	–	–	–	–	–	0.0274	53.3	-1.05	0.429	-0.745	54.5	7.38	1.04

Reference: ChEMBL document CHEMBL5665443, “Enzyme Inhibitor Single Concentration assay results for EUbOPEN Chemogenomics Library” (2024)
